Source: US20150315130A1, “New positive allosteric modulators of nicotinic acetylcholine receptor” (H. LUNDBECK A/S, priority 2012, published 2015)
pEC50: −log10 of the molar value.

Molecular target: T1, human α7 receptor (Homo sapiens, UniProt P36544)
T1 construct: host or cells: rat GH4C1 cell line
Test: α7 NNR flux assay (FDSS calcium flux, Calcium-4 dye, PAM mode with acetylcholine)
Assay type: cell-based
Conditions: human α7 receptor stably expressed in rat GH4C1 cells; enhancement of response to 20 μM acetylcholine; % modulation relative to PNU-120596 set to 100%
Experimental: The nicotinic acetylcholine receptor α7 is a calcium-permeable ion channel, whose activity can be measured by over expression in mammalian cells or oocytes. These two individual assays are described in Example 2 and 3, respectively.
In this version of the assay, the human α7 receptor is stably expressed in the rat GH4C1 cell line. The assay was used to identify positive allosteric modulators (PAMs) of the α7 receptor. Activation of the channel was measured by loading cells with the calcium-sensitive fluorescent dye Calcium-4 (Assay kit from Molecular Devices), and then measuring real-time changes in fluorescence upon treatment with test compounds.
The cell line ChanClone GH4C1-nAChRalphα7 from Genionics was seeded from frozen stock in 384-well plates in culture media 2-3 days before experiment to form an approximately 80% confluent layer on the day of experiment.
The cell culture was split into “22.5 cm×22.5 cm”-plates with approximately 100×10^3 cells/cm^2. After four days incubation in a humidified incubator at 37° C. and 5% CO2, it had grown to an 80-90% confluent layer, and the cells were harvested.
Two or three days before the experiment the cells were seeded in 384 well plates from Greiner bio-one (781946, CELLCOAT, Poly-D-Lysine, black, μClear).
The media was poured off and the plate washed with PBS and left to drain. 5 mL Trypsin was added, cells were washed and incubated (at room temperature) for about 10 seconds. Trypsin was poured of quickly and the cells were incubated for 2 minutes at 37° C. (if the cells were not already detached). Cells were resuspended in 10 mL culture media and transferred to 50 mL tubes.
The cell suspension was counted (NucleoCounter, total cell count) from the first plates to estimate the total cell number of the whole batch.
The cells were seeded in 384 well plates with 30 μL/well (30000 cells/well) while stirring the cell suspension or otherwise preventing the cells from precipitating.
The plates were incubated at room temperature for 30-45 minutes.
The plates were placed in incubator for two days (37° C. and 5% CO2).
The loading buffer was 5% v/v Calcium-4 Kit and 2.5 mM Probenecid in assay buffer.
Culture media were removed from the cell plates and 20 μL loading buffer was added in each well. The cell plates were placed in trays and incubated 90 minutes in the incubator (37° C.). Thereafter the plates were incubated 30 minutes at room temperature, still protected from light.
Now the cell plates were ready to run in the Functional Drug Screening System (FDSS).
The assay buffer was HBSS with 20 mM HEPES, pH 7.4 and 3 mM CaCl2.
200 nL 10 mM compound solution in DMSO was diluted in 50 μL assay buffer. The final test concentrations in the cell plates were 20-10-5-2.5-1.25-0.625-0.312-0.156-0.078-0.039 μM. Assay buffer and 3 μM PNU-120596 were used for control.
The agonist acetylcholine was added to a final concentration of 20 μM (˜E0100). In the FDSS7000 the Ex480-Em540 was measured with 1 second intervals. The baseline was made of 5 frames before addition of test compounds, and 95 frames more were made before addition of acetylcholine. The measurement stopped 30 frames after the 2nd addition. Raw data for each well were collected as “the maximum fluorescence count” in the interval 100-131 seconds and as “the average fluorescence count” in the interval 96-100 seconds. The positive allosteric modulation in the 2nd addition was the enhancement of agonist response with test compound compared to agonist alone.
Results were calculated as % modulation of test compound compared to the reference PNU-120596 set to 100%.

T1 sequence (P36544 23-502): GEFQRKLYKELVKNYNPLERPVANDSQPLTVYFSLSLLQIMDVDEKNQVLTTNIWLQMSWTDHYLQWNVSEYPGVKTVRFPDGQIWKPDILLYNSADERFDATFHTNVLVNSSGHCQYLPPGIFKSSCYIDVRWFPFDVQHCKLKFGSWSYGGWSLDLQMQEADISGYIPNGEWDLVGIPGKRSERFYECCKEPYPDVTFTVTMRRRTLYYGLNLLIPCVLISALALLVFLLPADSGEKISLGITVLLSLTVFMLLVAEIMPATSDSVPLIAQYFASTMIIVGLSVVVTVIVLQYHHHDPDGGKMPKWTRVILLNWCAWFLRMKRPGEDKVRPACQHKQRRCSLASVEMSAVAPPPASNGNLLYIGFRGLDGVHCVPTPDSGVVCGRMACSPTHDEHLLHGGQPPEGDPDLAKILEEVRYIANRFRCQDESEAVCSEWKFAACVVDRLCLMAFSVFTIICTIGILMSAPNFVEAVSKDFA

pEC50 | Structure (SMILES)
5.82 | COc1ccc([C@H](C)NC(=O)[C@H]2C[C@@H]2c2ccccc2)cc1 [Compound 1, (1S,2S)-2-Phenyl-cyclopropanecarboxylic acid [(S)-1-(4-methoxy-phenyl)ethyl]-amide]
5.42 | Cc1ccc([C@H](C)NC(=O)[C@H]2C[C@@H]2c2ccccc2)cc1 [Compound 5, (1S,2S)-2-Phenyl-cyclopropanecarboxylic acid ((S)-1-p-tolyl-ethyl)-amide]
6.57 | CCOc1ccc([C@H](CO)NC(=O)[C@H]2C[C@@H]2c2ccccc2)cc1 [Compound 8, (1S,2S)-2-Phenyl-cyclopropanecarboxylic acid [(R)-1-(4-ethoxy-phenyl)-2-hydroxy-ethyl]-amide]
6.19 | COc1ccc([C@H](CO)NC(=O)[C@H]2C[C@@H]2c2ccccc2)cc1 [Compound 10, (1S,2S)-2-Phenyl-cyclopropanecarboxylic acid [(R)-2-hydroxy-1-(4-methoxy-phenyl)-ethyl]-amide]
6.80 | COC[C@H](NC(=O)[C@H]1C[C@@H]1c1ccccc1)c1ccc(OC)cc1 [Compound 16, (1S,2S)-2-Phenyl-cyclopropanecarboxylic acid [(R)-2-methoxy-1-(4-methoxy-phenyl)-ethyl]-amide]
7.48 | CCOc1ccc([C@H](COC)NC(=O)[C@H]2C[C@@H]2c2ccccc2)cc1 [Compound 17, (1S,2S)-2-Phenyl-cyclopropanecarboxylic acid [(R)-1-(4-ethoxy-phenyl)-2-methoxy-ethyl]-amide]
5.41 | O=C(N[C@@H](CO)c1ccc(O)cc1)[C@H]1C[C@@H]1c1ccccc1 [Compound 18, (1S,2S)-2-Phenyl-cyclopropanecarboxylic acid [(R)-2-hydroxy-1-(4-hydroxy-phenyl)-ethyl]-amide]
5.44 | COC[C@H](NC(=O)[C@H]1C[C@@H]1c1ccccc1)c1ccc(O)cc1 [Compound 19, (1S,2S)-2-Phenyl-cyclopropanecarboxylic acid [(R)-1-(4-hydroxy-phenyl)-2-methoxy-ethyl]-amide]
5.82 | O=C(N[C@@H](CO)c1ccc(OCCF)cc1)[C@H]1C[C@@H]1c1ccccc1 [Compound 24, (1S,2S)-2-Phenyl-cyclopropanecarboxylic acid {(R)-1-[4-(2-fluoro-ethoxy)phenyl]-2-hydroxy-ethyl}-amide]

More lines, now with the values behind:

Structure (SMILES) | pEC50
O=C(N[C@@H](CCO)c1ccccc1)[C@H]1C[C@@H]1c1ccccc1 [Compound 2, (1S,2S)-2-Phenyl-cyclopropanecarboxylic acid ((S)-3-hydroxy-1-phenyl-propyl)-amide] | 5.31
C[C@H](NC(=O)[C@H]1C[C@@H]1c1ccccc1)c1ccc(F)cc1 [Compound 3, (1S,2S)-2-Phenyl-cyclopropanecarboxylic acid [(S)-1-(4-fluoro-phenyl)-ethyl]-amide] | 5.62
COc1ccc([C@H](CO)NC(=O)[C@H]2C[C@@H]2c2cccc(F)c2)cc1 [Compound 4, (1S,2S)-2-(3-Fluoro-phenyl)-cyclopropanecarboxylic acid [(R)-2-hydroxy-1-(4-methoxy-phenyl)-ethyl]-amide] | 5.92
C[C@H](NC(=O)[C@H]1C[C@@H]1c1ccccc1)c1cccc(F)c1 [Compound 6, (1S,2S)-2-Phenyl-cyclopropanecarboxylic acid [(S)-1-(3-fluoro-phenyl)-ethyl]-amide] | 5.51
O=C(N[C@@H](CO)c1ccc(OC(F)(F)F)cc1)[C@H]1C[C@@H]1c1ccccc1 [Compound 7, (1S,2S)-2-Phenyl-cyclopropanecarboxylic acid [(R)-2-hydroxy-1-(4-trifluoromethoxy-phenyl)-ethyl]-amide] | 5.44
COc1ccc([C@H](CO)NC(=O)[C@H]2C[C@@H]2c2ccccc2)c(F)c1 [Compound 9, (1S,2S)-2-Phenyl-cyclopropanecarboxylic acid [(R)-1-(2-fluoro-4-methoxy-phenyl)-2-hydroxy-ethyl]-amide] | 6.21
COc1cccc([C@H](C)NC(=O)[C@H]2C[C@@H]2c2ccccc2)c1 [Compound 11, (1S,2S)-2-Phenyl-cyclopropanecarboxylic acid [(S)-1-(3-methoxy-phenyl)ethyl]-amide] | 5.52
C[C@H](NC(=O)[C@H]1C[C@@H]1c1ccccc1)c1ccccc1F [Compound 12, (1S,2S)-2-Phenyl-cyclopropanecarboxylic acid [(S)-1-(2-fluoro-phenyl)-ethyl]-amide] | 5.72
COc1ccc([C@H](CO)NC(=O)[C@H]2C[C@@H]2c2ccc(F)cc2)cc1 [Compound 13, (1S,2S)-2-(4-Fluoro-phenyl)-cyclopropanecarboxylic acid [(R)-2-hydroxy-1-(4-methoxy-phenyl)-ethyl]-amide] | 6.29
COc1ccc([C@H](CO)NC(=O)[C@H]2C[C@@H]2c2cccc(F)c2)cc1 [Compound 14, (1S,2S)-2-(3-Fluoro-phenyl)-cyclopropanecarboxylic acid [(R)-2-hydroxy-1-(4-methoxy-phenyl)-ethyl]-amide] | 6.40
COc1ccc([C@H](CO)NC(=O)[C@H]2C[C@@H]2c2ccccc2F)cc1 [Compound 15, (1S,2S)-2-(2-Fluoro-phenyl)-cyclopropanecarboxylic acid [(R)-2-hydroxy-1-(4-methoxy-phenyl)-ethyl]-amide] | 5.92
COC[C@H](NC(=O)[C@H]1C[C@@H]1c1ccc(F)cc1)c1ccc(OC)cc1 [Compound 20, (1S,2S)-2-(4-Fluoro-phenyl)-cyclopropanecarboxylic acid [(R)-2-methoxy-1-(4-methoxy-phenyl)-ethyl]-amide] | 7.08
COC[C@H](NC(=O)[C@H]1C[C@@H]1c1cccc(F)c1)c1ccc(OC)cc1 [Compound 21, (1S,2S)-2-(3-Fluoro-phenyl)-cyclopropanecarboxylic acid [(R)-2-methoxy-1-(4-methoxy-phenyl)-ethyl]-amide] | 5.96
O=C(N[C@@H](CO)c1ccc(O)cc1)[C@H]1C[C@@H]1c1ccc(F)cc1 [Compound 22, (1S,2S)-2-(4-Fluoro-phenyl)-cyclopropanecarboxylic acid [(R)-2-hydroxy-1-(4-hydroxy-phenyl)-ethyl]-amide] | 5.49
O=C(N[C@@H](CO)c1ccc(O)cc1)[C@H]1C[C@@H]1c1cccc(F)c1 [Compound 23, (1S,2S)-2-(3-Fluoro-phenyl)-cyclopropanecarboxylic acid [(R)-2-hydroxy-1-(4-hydroxy-phenyl)-ethyl]-amide] | 5.42
O=C(N[C@@H](CO)c1ccc(OCCF)cc1)[C@H]1C[C@@H]1c1ccc(F)cc1 [Compound 25, (1S,2S)-2-(4-Fluoro-phenyl)-cyclopropanecarboxylic acid {(R)-1-[4-(2-fluoro-ethoxy)-phenyl]-2-hydroxy-ethyl}-amide] | 6.85
